pEC50: −log10 of the molar value.
Target: T1, human IL-17AA (Homo sapiens, UniProt Q16552)
T1 construct: host or cells: HEK (human embryonic kidney) cells
T1 sequence (Q16552 24-155): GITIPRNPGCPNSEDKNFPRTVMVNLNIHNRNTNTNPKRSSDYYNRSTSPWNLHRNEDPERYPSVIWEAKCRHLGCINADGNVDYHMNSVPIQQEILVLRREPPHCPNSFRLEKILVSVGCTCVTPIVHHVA
Assay: IL-8 release assay in human epithelial keratinocytes adult (HEKa)
Format: cell-based
Details: HEKa cells, 3 ng/mL HEK-human IL-17AA + 10 ng/mL human TNFalpha; read-out: Rel EC50 IL-8 release assay
How it was run: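 IL-8 release, quantified by HTRF and normalized to controls, reports IL-17 signaling in HEKa cells treated with compound plus final 3 ng/mL IL-17AA (HEK-derived) and 10 ng/mL TNF-alpha for 68-72 h; TNF-alpha-only wells set 100% inhibition. Four-parameter logistic fits (r^2>0.9) give relative IC50 and Emax; PrestoBlue flags cytotoxicity.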

Row | Compound | pEC50
1 | CC[C@H](C)[C@H](NC(=O)c1ccnn1C)C(=O)Nc1ccc(-c2c(C)n[nH]c2C)cc1 [Example 43, N-[(1S,2S)-1-[[4-(3,5-dimethyl-1H-pyrazol-4-yl)phenyl]carbamoyl]-2-methyl-butyl]-2-methyl-pyrazole-3-carboxamide] | 6.00 to 7.00
2 | Cc1n[nH]c(C)c1-c1ccc(NC(=O)[C@@H](NC(=O)c2ccnn2C)C2[C@H]3CCCC[C@@H]23)cc1 (stereo partly drawn) [Example 246, N-[(1S)-2-[4-(3,5-dimethyl-1H-pyrazol-4-yl)anilino]-1-[(1S,6R)-norcaran-7-yl]-2-oxo-ethyl]-2-methyl-pyrazole-3-carboxamide] | 6.00 to 7.00
3 | CC(C)n1nccc1C(=O)N[C@H](C(=O)Nc1ccc(-c2nncn2C)cc1)C1CCCCCC1 [Example 349, N-[(1S)-1-cycloheptyl-2-[4-(4-methyl-1,2,4-triazol-3-yl)anilino]-2-oxo-ethyl]-2-isopropyl-pyrazole-3-carboxamide] | 6.00 to 7.00
4 | Cc1n[nH]c(C)c1-c1ccc(NC(=O)[C@@H](NC(=O)c2ccnn2C)[C@H]2CCOc3ccccc32)cc1 [Example 34, N-[(1S)-1-[(4S)-chroman-4-yl]-2-[4-(3,5-dimethyl-1H-pyrazol-4-yl)anilino]-2-oxo-ethyl]-2-methyl-pyrazole-3-carboxamide] | 6.00 to 7.00
5 | Cc1n[nH]c(C)c1-c1ccc(NC(=O)[C@@H](NC(=O)c2ccnn2C(C)C)[C@H]2CCOc3cc(F)ccc32)cc1 [Example 288, N-[(1S)-2-[4-(3,5-dimethyl-1H-pyrazol-4-yl)anilino]-1-[(4S)-7-fluorochroman-4-yl]-2-oxo-ethyl]-2-isopropyl-pyrazole-3-carboxamide] | > 7.00
6 | Cc1n[nH]c(C)c1-c1ccc(NC(=O)C(NC(=O)c2ccnn2CCC(C)O)C2CCCCCCC2)cc1 (single isomer, unassigned) [Example 145, N-[1-cyclooctyl-2-[4-(3,5-dimethyl-1H-pyrazol-4-yl)anilino]-2-oxo-ethyl]-2-(3-hydroxybutyl)pyrazole-3-carboxamide] | > 7.00
7 | Cn1cncc1-c1ccc(NC(=O)[C@@H](NC(=O)c2ccnn2C)C(c2ccccc2)c2ccccc2)cc1 [Example 346, N-[(1S)-1-benzhydryl-2-[4-(3-methylimidazol-4-yl)anilino]-2-oxo-ethyl]-2-methyl-pyrazole-3-carboxamide] | 6.00 to 7.00
8 | Cc1n[nH]c(C)c1-c1ccc(NC(=O)[C@@H](NC(=O)c2ccnn2C)C2CCCCCC2)cc1 [Example 3, N-[(1S)-1-cycloheptyl-2-[4-(3,5-dimethyl-1H-pyrazol-4-yl)anilino]-2-oxo-ethyl]-2-methyl-pyrazole-3-carboxamide] | > 7.00
9 | Cc1n[nH]c(C)c1-c1ccc(NC(=O)[C@@H](NC(=O)N(C)CCCO)C2CCCCC2)cc1 [Example 459, (2S)-2-cyclohexyl-N-[4-(3,5-dimethyl-1H-pyrazol-4-yl)phenyl]-2-[[3-hydroxypropyl(methyl)carbamoyl]amino]acetamide] | < 6.00
10 | Cc1n[nH]c(C)c1-c1ccc(NC(=O)[C@@H](NC(=O)OC2CC2)C2CCCCC2)cc1O [Example 424, cyclopropyl N-[(1S)-1-cyclohexyl-2-[4-(3,5-dimethyl-1H-pyrazol-4-yl)-3-hydroxy-anilino]-2-oxo-ethyl]carbamate] | 6.00 to 7.00
11 | CCn1nccc1C(=O)N[C@H](C(=O)Nc1ccc(-c2c(C)n[nH]c2C)cc1)[C@H]1CCCC(F)(F)C1 [Example 22, N-[(1S)-1-[(1S)-3,3-difluorocyclohexyl]-2-[4-(3,5-dimethyl-1H-pyrazol-4-yl)anilino]-2-oxo-ethyl]-2-ethyl-pyrazole-3-carboxamide] | 6.00 to 7.00
12 | CC(C)n1nccc1C(=O)N[C@H](C(=O)Nc1ccc(-c2[nH]cnc2C2CC2)cc1)C(C1CC1)C1CC1 [Example 381, N-[(1S)-2,2-dicyclopropyl-1-[[4-(4-cyclopropyl-1H-imidazol-5-yl)phenyl]carbamoyl]ethyl]-2-isopropyl-pyrazole-3-carboxamide] | 6.00 to 7.00
13 | Cc1n[nH]c(C)c1-c1ccc(NC(=O)[C@@H](NC(=O)c2ccnn2C(F)F)C2CCCCC2)cc1 [Example 28, N-[(1S)-1-cyclohexyl-2-[4-(3,5-dimethyl-1H-pyrazol-4-yl)anilino]-2-oxo-ethyl]-2-(difluoromethyl)pyrazole-3-carboxamide] | 6.00 to 7.00
14 | Cc1n[nH]c(C)c1-c1ccc(NC(=O)[C@@H](NC(=O)c2ccnn2C)C2CCCCC2)cc1O [Example 412, N-[(1S)-1-cyclohexyl-2-[4-(3,5-dimethyl-1H-pyrazol-4-yl)-3-hydroxy-anilino]-2-oxo-ethyl]-2-methyl-pyrazole-3-carboxamide] | > 7.00
15 | Cc1n[nH]c(C)c1-c1ccc(NC(=O)[C@@H](NC(=O)c2ccnn2C(C)CO)[C@H]2CC[C@H](C)CC2)cc1 (single isomer, unassigned) [Example 205] | > 7.00
16 | Cc1n[nH]c(C)c1-c1ccc(NC(=O)[C@@H](NC(=O)c2ccnn2C)C2C3CC4CC(C3)CC2C4)cc1 (stereo partly drawn) [Example 202, N-[(1S)-1-(2-adamantyl)-2-[4-(3,5-dimethyl-1H-pyrazol-4-yl)anilino]-2-oxo-ethyl]-2-methyl-pyrazole-3-carboxamide] | > 7.00

Row | Compound | pEC50
17 | COCCn1nccc1C(=O)N[C@H](C(=O)Nc1ccc(-c2c(C)n[nH]c2C)cc1)C(C1CC1)C1CC1 [Example 206, N-[(1S)-1-(dicyclopropylmethyl)-2-[4-(3,5-dimethyl-1H-pyrazol-4-yl)anilino]-2-oxo-ethyl]-2-(2-methoxyethyl)pyrazole-3-carboxamide] | > 7.00
18 | Cc1n[nH]c(C)c1-c1ccc(NC(=O)[C@@H](NC(=O)c2ccnn2C)[C@@H]2CCc3ccc(Br)cc32)cc1 [Example 4, N-[(1S)-1-[(1R)-6-bromoindan-1-yl]-2[4-(3,5-dimethyl-1H-pyrazol-4-yl)anilino]-2-oxo-ethyl]-2-methyl-pyrazole-3-carboxamide] | 6.00 to 7.00
19 | Cc1n[nH]c(C(C)O)c1-c1ccc(NC(=O)[C@@H](NC(=O)C2(F)CC2)C(c2ccccc2)c2ccccc2)cc1 (stereo partly drawn) [Example 442, N-[(1S)-1-benzhydryl-2-[4-[5-(1-hydroxyethyl)-3-methyl-1H-pyrazol-4-yl]anilino]-2-oxo-ethyl]-1-fluoro-cyclopropanecarboxamide] | 6.00 to 7.00
20 | Cc1n[nH]c(C)c1-c1ccc(NC(=O)[C@@H](NC(=O)c2ccnn2C(C)C)C(C)C2CCC2)cc1 (single isomer, unassigned) [Example 190] | > 7.00
21 | Cn1cncc1-c1ccc(NC(=O)[C@@H](NC(=O)c2ccnn2C)C(C2CCCCC2)C2CCCC2)cc1 (single isomer, unassigned) [Example 339B] | 6.00 to 7.00
22 | Cc1n[nH]c(C)c1-c1ccc(NC(=O)[C@@H](NC(=O)c2ccnn2CCC(O)C(F)(F)F)C(C2CC2)C2CC2)cc1 (stereo partly drawn) [Example 179, N-[(1S)-1-(dicyclopropylmethyl)-2-[4-(3,5-dimethyl-1H-pyrazol-4-yl)anilino]-2-oxo-ethyl]-2-(4,4,4-trifluoro-3-hydroxy-butyl)pyrazole-3-carboxamide] | > 7.00
23 | Cc1n[nH]c(C)c1-c1ccc(NC(=O)[C@H](CC2CC2)NC(=O)c2ccnn2C)cc1 [Example 243, N-[(1S)-1-(cyclopropylmethyl)-2-[4-(3,5-dimethyl-1H-pyrazol-4-yl)anilino]-2-oxo-ethyl]-2-methyl-pyrazole-3-carboxamide] | < 6.00
24 | COc1n[nH]c(C)c1-c1ccc(NC(=O)[C@@H](NC(=O)c2ccnn2C)C2CCCCC2)cc1 [Example 358, N-[(1S)-1-cyclohexyl-2-[4-(5-methoxy-3-methyl-1H-pyrazol-4-yl)anilino]-2-oxo-ethyl]-2-methyl-pyrazole-3-carboxamide] | < 6.00
25 | Cc1n[nH]c(C)c1-c1ccc(NC(=O)[C@@H](NC(=O)OCc2ccccc2)C2CCCCC2)cc1 [Example 429, benzyl N-[(1S)-1-cyclohexyl-2-[4-(3,5-dimethyl-1H-pyrazol-4-yl)anilino]-2-oxo-ethyl]carbamate] | 6.00 to 7.00
26 | Cc1n[nH]c(C)c1-c1ccc(NC(=O)[C@@H](NC(=O)c2ccnn2C)C(C)C2CCCC2)cc1 (mixture of isomers) [Example 221] | 6.00 to 7.00
27 | Cc1n[nH]c(C)c1-c1ccc(NC(=O)[C@@H](NC(=O)c2ccnn2C)C2CC3CCC2CC3)cc1 (single isomer, unassigned) [Example 254] | 6.00 to 7.00
28 | Cc1n[nH]c(C)c1-c1ccc(NC(=O)[C@@H](NC(=O)OCc2ccccn2)C2CCCCC2)cc1 [Example 431, 2-pyridylmethyl N-[(1S)-1-cyclohexyl-2-[4-(3,5-dimethyl-1H-pyrazol-4-yl)anilino]-2-oxo-ethyl]carbamate] | 6.00 to 7.00
29 | Cn1cncc1-c1ccc(NC(=O)[C@@H](NC(=O)c2ccnn2C)[C@H]2CCc3ccccc32)cc1 [Example 377, N-[(1S)-1-[(1S)-indan-1-yl]-2-[4-(3-methylimidazol-4-yl)anilino]-2-oxo-ethyl]-2-methyl-pyrazole-3-carboxamide] | 6.00 to 7.00
30 | CCn1nncc1C(=O)N[C@H](C(=O)Nc1ccc(-c2c(C)n[nH]c2C)cc1)[C@H]1CC[C@H](C)CC1 [Example 149, N-[(1S)-2-[4-(3,5-dimethyl-1H-pyrazol-4-yl)anilino]-1-(4-methylcyclohexyl)-2-oxo-ethyl]-3-ethyl-triazole-4-carboxamide] | 6.00 to 7.00
31 | Cc1n[nH]c(C)c1-c1ccc(NC(=O)[C@@H](NC(=O)c2ccnn2[C@@H](C)CO)C(C2CC2)C2CC2)cc1 (single isomer, unassigned) [Example 119] | > 7.00
32 | CC(C)n1nccc1C(=O)N[C@H](C(=O)Nc1ccc(-c2c(CO)ncn2C)cc1)C(C1CC1)C1CC1 [Example 406, N-[(1S)-1-(dicyclopropylmethyl)-2-[4-[5-(hydroxymethyl)-3-methyl-imidazol-4-yl]anilino]-2-oxo-ethyl]-2-isopropyl-pyrazole-3-carboxamide] | 6.00 to 7.00
